Reference: ChEMBL document CHEMBL1159126, “Salicylanilide carbamates: antitubercular agents active against multidrug-resistant Mycobacterium tuberculosis strains” (Bioorg Med Chem, 2010)
≈ marks a conversion by molar mass, not a printed value.

What was measured:
Mycobacterium avium [1] = assay: Antimycobacterial activity against Mycobacterium avium 330/88 after 21 days by micromethod; type: functional; conditions: 330/88, 504 h
Mycobacterium avium [2] = assay: Antimycobacterial activity against Mycobacterium avium 330/88 after 14 days by micromethod; type: functional; conditions: 330/88, 336 h
[3] = test system: Mycobacterium tuberculosis; assay: microbe, parasite or virus in culture; conditions: 331/88, 504 h
Description: Antimycobacterial activity against Mycobacterium tuberculosis 331/88 after 21 days by micromethod

Mycobacterium kansasii [4] = assay: Antimycobacterial activity against Mycobacterium kansasii 6509/96 after 21 days by micromethod; type: functional; conditions: 6509/96, 504 h
Mycobacterium kansasii [5] = assay: Antimycobacterial activity against Mycobacterium kansasii 6509/96 after 14 days by micromethod; type: functional; conditions: 6509/96, 336 h
Mycobacterium kansasii [6] = assay: Antimycobacterial activity against Mycobacterium kansasii 235/80 after 14 days by micromethod; type: functional; conditions: 235/80, 336 h
[7] = test system: Mycobacterium tuberculosis; assay: microbe, parasite or virus in culture; conditions: 331/88, 336 h
Description: Antimycobacterial activity against Mycobacterium tuberculosis 331/88 after 14 days by micromethod

[8] = Partition coefficient, log P of the compound; type: physicochemical; conditions: octanol/water
Mycobacterium kansasii [9] = assay: Antimycobacterial activity against Mycobacterium kansasii 235/80 after 21 days by micromethod; type: functional; conditions: 235/80, 504 h
[10] = Toxicity against human HCT8 cells after 72 hrs by XTT assay; type: cell-based, HCT-8

SMILES | MIC (Mycobacterium avium [1]) [µM] | MIC (Mycobacterium avium [2]) [µM] | MIC [3] [µM] | MIC (Mycobacterium kansasii [4]) [µM] | MIC (Mycobacterium kansasii [5]) [µM] | MIC (Mycobacterium kansasii [6]) [µM] | MIC [7] [µM] | logP [8] | MIC (Mycobacterium kansasii [9]) [µM] | EC50 at 72 h [10] [µM]
CCCCNC(=O)Oc1ccc(Cl)cc1C(=O)Nc1ccc(Cl)cc1 | 8 (≈ 3.05 µg/mL) | 4 (≈ 1.53 µg/mL) | 2 (≈ 0.763 µg/mL) | 4 (≈ 1.53 µg/mL) | 2 (≈ 0.763 µg/mL) | 4 (≈ 1.53 µg/mL) | 2 (≈ 0.763 µg/mL) | 4.69 | 4 (≈ 1.53 µg/mL) | –
CCCCCCCNC(=O)Oc1ccc(Cl)cc1C(=O)Nc1ccc(Cl)c(Cl)c1 | 8 (≈ 3.66 µg/mL) | 4 (≈ 1.83 µg/mL) | 1 (≈ 0.458 µg/mL) | 4 (≈ 1.83 µg/mL) | 2 (≈ 0.916 µg/mL) | 2 (≈ 0.916 µg/mL) | 0.5 (≈ 0.229 µg/mL) | 6.5 | 2 (≈ 0.916 µg/mL) | 43.4
CCCCNC(=O)Oc1ccc(Cl)cc1C(=O)Nc1ccc(Cl)c(Cl)c1 | 16 (≈ 6.65 µg/mL) | 8 (≈ 3.33 µg/mL) | 1 (≈ 0.416 µg/mL) | 4 (≈ 1.66 µg/mL) | 2 (≈ 0.831 µg/mL) | 2 (≈ 0.831 µg/mL) | 0.5 (≈ 0.208 µg/mL) | 5.25 | 2 (≈ 0.831 µg/mL) | 38
CCCCCCCCNC(=O)Oc1ccc(Cl)cc1C(=O)Nc1cccc(Cl)c1 | 4 (≈ 1.75 µg/mL) | 4 (≈ 1.75 µg/mL) | 2 (≈ 0.875 µg/mL) | 8 (≈ 3.5 µg/mL) | 4 (≈ 1.75 µg/mL) | 8 (≈ 3.5 µg/mL) | 2 (≈ 0.875 µg/mL) | 6.36 | 8 (≈ 3.5 µg/mL) | –
CCNC(=O)Oc1ccc(Cl)cc1C(=O)Nc1ccc(Cl)cc1 | 8 (≈ 2.83 µg/mL) | 8 (≈ 2.83 µg/mL) | 2 (≈ 0.706 µg/mL) | 8 (≈ 2.83 µg/mL) | 4 (≈ 1.41 µg/mL) | 4 (≈ 1.41 µg/mL) | 1 (≈ 0.353 µg/mL) | 3.79 | 8 (≈ 2.83 µg/mL) | –
CCCCCCCCCCCNC(=O)Oc1ccc(Cl)cc1C(=O)Nc1ccc(Cl)c(Cl)c1 | 16 (≈ 8.22 µg/mL) | 16 (≈ 8.22 µg/mL) | 2 (≈ 1.03 µg/mL) | 4 (≈ 2.06 µg/mL) | 4 (≈ 2.06 µg/mL) | 4 (≈ 2.06 µg/mL) | 2 (≈ 1.03 µg/mL) | 8.17 | 4 (≈ 2.06 µg/mL) | –
CCCCCNC(=O)Oc1ccc(Cl)cc1C(=O)Nc1cccc(Cl)c1 | 8 (≈ 3.16 µg/mL) | 8 (≈ 3.16 µg/mL) | 4 (≈ 1.58 µg/mL) | 8 (≈ 3.16 µg/mL) | 8 (≈ 3.16 µg/mL) | 8 (≈ 3.16 µg/mL) | 2 (≈ 0.791 µg/mL) | 5.11 | 8 (≈ 3.16 µg/mL) | –
CCCCCCCCNC(=O)Oc1ccc(Cl)cc1C(=O)Nc1ccc(Cl)cc1 | 8 (≈ 3.5 µg/mL) | 8 (≈ 3.5 µg/mL) | 2 (≈ 0.875 µg/mL) | 4 (≈ 1.75 µg/mL) | 4 (≈ 1.75 µg/mL) | 8 (≈ 3.5 µg/mL) | 2 (≈ 0.875 µg/mL) | 6.36 | 8 (≈ 3.5 µg/mL) | –
CCCCCCCCCCNC(=O)Oc1ccc(Cl)cc1C(=O)Nc1ccc(Cl)cc1 | 8 (≈ 3.72 µg/mL) | 8 (≈ 3.72 µg/mL) | 2 (≈ 0.931 µg/mL) | 8 (≈ 3.72 µg/mL) | 8 (≈ 3.72 µg/mL) | 8 (≈ 3.72 µg/mL) | 2 (≈ 0.931 µg/mL) | 7.19 | 8 (≈ 3.72 µg/mL) | –
CCCCCCCNC(=O)Oc1ccc(Cl)cc1C(=O)Nc1cccc(Cl)c1 | 8 (≈ 3.39 µg/mL) | 8 (≈ 3.39 µg/mL) | 2 (≈ 0.847 µg/mL) | 8 (≈ 3.39 µg/mL) | 8 (≈ 3.39 µg/mL) | 4 (≈ 1.69 µg/mL) | 1 (≈ 0.423 µg/mL) | 5.94 | 8 (≈ 3.39 µg/mL) | –
CCCCCCCCCNC(=O)Oc1ccc(Cl)cc1C(=O)Nc1ccc(Cl)c(Cl)c1 | 8 (≈ 3.89 µg/mL) | 8 (≈ 3.89 µg/mL) | 2 (≈ 0.972 µg/mL) | 4 (≈ 1.94 µg/mL) | 4 (≈ 1.94 µg/mL) | 8 (≈ 3.89 µg/mL) | 2 (≈ 0.972 µg/mL) | 7.34 | 8 (≈ 3.89 µg/mL) | –
CCCCCCCCNC(=O)Oc1ccc(Cl)cc1C(=O)Nc1ccc(Cl)c(Cl)c1 | 8 (≈ 3.77 µg/mL) | 4 (≈ 1.89 µg/mL) | 1 (≈ 0.472 µg/mL) | 4 (≈ 1.89 µg/mL) | 2 (≈ 0.944 µg/mL) | 2 (≈ 0.944 µg/mL) | 0.5 (≈ 0.236 µg/mL) | 6.92 | 4 (≈ 1.89 µg/mL) | 48.5
CCCCCNC(=O)Oc1ccc(Cl)cc1C(=O)Nc1ccc(Cl)c(Cl)c1 | 16 (≈ 6.88 µg/mL) | 8 (≈ 3.44 µg/mL) | 0.5 (≈ 0.215 µg/mL) | 4 (≈ 1.72 µg/mL) | 2 (≈ 0.859 µg/mL) | 2 (≈ 0.859 µg/mL) | 0.5 (≈ 0.215 µg/mL) | 5.67 | 2 (≈ 0.859 µg/mL) | 40
CCCCCNC(=O)Oc1ccc(Cl)cc1C(=O)Nc1ccc(Cl)cc1 | 8 (≈ 3.16 µg/mL) | 8 (≈ 3.16 µg/mL) | 0.5 (≈ 0.198 µg/mL) | 4 (≈ 1.58 µg/mL) | 4 (≈ 1.58 µg/mL) | 2 (≈ 0.791 µg/mL) | 0.5 (≈ 0.198 µg/mL) | 5.11 | 4 (≈ 1.58 µg/mL) | 17.4
